The source made the active and inactive calls. The calls are words filed in the database; no cut-off is given here.
Key:
KB = test: Cytotoxicity against human KB cells; assay type: functional, cell-based
[1] = Inhibition of tubulin microtubule disassembly

| Activity [1] | IC50 [1] | SMILES | IC50 (KB) |
| --- | --- | --- | --- |
| inactive | – | CC(C)CC[C@H](C[C@]12C[C@H](CCC(C)C)C(C)(C)[C@](CCC(C)C)(C(=O)C(C(=O)c3ccc(O)c(O)c3)=C1O)C2=O)C(C)C [OCTAHYDROXANTHOCHYMOL] | 20 µM |
| – | 0.5 µM | CC(=O)O[C@H]1C(=O)[C@@]2(C)[C@H]([C@H](OC(=O)c3ccccc3)[C@]3(O)C[C@H](OC(=O)[C@H](O)[C@@H](NC(=O)c4ccccc4)c4ccccc4)C(C)=C1C3(C)C)[C@]1(OC(C)=O)CO[C@@H]1C[C@@H]2O [PACLITAXEL] | – |

— ChEMBL document CHEMBL1155563, “Structure-activity relationship of polyisoprenyl benzophenones from Garcinia pyrifera on the tubulin/microtubule system” (J Nat Prod, 2000)
